Experimental data published in the supplement of paper PMC10307832.

Assays:
Experiment in all cases: relative viability (nuclei count vs DMSO), 5 days (fraction); higher = more cells survive
Ispinesib + Palbociclib = compound: Cc1ccc(C(=O)N(CCCN)[C@@H](c2nc3cc(Cl)ccc3c(=O)n2Cc2ccccc2)C(C)C)cc1 [Ispinesib] + CC(=O)c1c(C)c2cnc(Nc3ccc(N4CCNCC4)cn3)nc2n(C2CCCC2)c1=O [Palbociclib] (partner 0.5 µM)
Outline: (§1)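 The day after seeding in 1536-well plates, lung cancer cell lines were treated by pin tool with a single drug, or with a fixed anchor-drug dose together with five library-drug doses (not always all listed) in √10 steps. After 5 days, a combined fix-and-stain solution (final 0.05% Triton X-100, 1% formaldehyde, 1 ug/ml Hoechst) was added. Nuclei counted on 4× images gave relative viability as treated counts over vehicle counts, reported as the median of duplicate plates.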

Linsitinib + Luminespib = compound: C[C@]1(O)C[C@@H](c2nc(-c3ccc4ccc(-c5ccccc5)nc4c3)c3c(N)nccn32)C1 [Linsitinib] + CCNC(=O)c1noc(-c2cc(C(C)C)c(O)cc2O)c1-c1ccc(CN2CCOCC2)cc1 [Luminespib] (partner 0.01 µM)
Outline: as §1

Linsitinib + Alpelisib = compound: C[C@]1(O)C[C@@H](c2nc(-c3ccc4ccc(-c5ccccc5)nc4c3)c3c(N)nccn32)C1 [Linsitinib] + Cc1nc(NC(=O)N2CCC[C@H]2C(N)=O)sc1-c1ccnc(C(C)(C)C(F)(F)F)c1 [Alpelisib] (partner 2 µM)
Outline: as §1

Linsitinib + OSI-027 = compound: C[C@]1(O)C[C@@H](c2nc(-c3ccc4ccc(-c5ccccc5)nc4c3)c3c(N)nccn32)C1 [Linsitinib] + COc1cccc2cc(-c3nc([C@H]4CC[C@H](C(=O)O)CC4)n4ncnc(N)c34)[nH]c12 [OSI-027] (partner 0.5 µM)
Outline: as §1

UMC-11
relative viability (Ispinesib + Palbociclib; first compound 0.001 µM): 0.336 | relative viability (Ispinesib + Palbociclib; first compound 0.003162 µM): 0.311 | relative viability (Ispinesib + Palbociclib; first compound 0.01 µM): 0.309 | relative viability (Ispinesib + Palbociclib; first compound 0.03162 µM): 0.217 | relative viability (Ispinesib + Palbociclib; first compound 0.1 µM): 0.237 | relative viability (Linsitinib + Luminespib; first compound 0.01 µM): 1.04 | relative viability (Linsitinib + Luminespib; first compound 0.03162 µM): 0.717 | relative viability (Linsitinib + Luminespib; first compound 0.1 µM): 0.992 | relative viability (Linsitinib + Luminespib; first compound 1 µM): 1.02 | relative viability (Linsitinib + Alpelisib; first compound 0.01 µM): 0.958 | relative viability (Linsitinib + Alpelisib; first compound 0.03162 µM): 0.951 | relative viability (Linsitinib + Alpelisib; first compound 0.1 µM): 0.961 | relative viability (Linsitinib + Alpelisib; first compound 1 µM): 0.969 | relative viability (Linsitinib + OSI-027; first compound 0.01 µM): 0.468 | relative viability (Linsitinib + OSI-027; first compound 0.03162 µM): 0.433 | relative viability (Linsitinib + OSI-027; first compound 0.1 µM): 0.552 | relative viability (Linsitinib + OSI-027; first compound 1 µM): 0.432
